Source: patent publication US9839614B2, “Nanoparticle and polymer formulations for thyroid hormone analogs, antagonists, and formulations and uses thereof” (NANOPHARMACEUTICALS LLC, priority 2009, dated 2017)

How the values were obtained:
Solubility = format: physicochemical
Description: Yield: 50%; off-white solid; recrist. solvent.: EtOH; TLC: Rf=0.43 (EtOAc/EtOH 9/1); RPTLC: Rf=0.43 (AcOH/H2O 8/2); mp=136° C.; IR (υ cm^−1): 1730 (CO); ^1H NMR (DMSO-d 6) δ (ppm): 7.79 (s, 2H, ArH), 7.14 (s, 2H, ArH), 4.06-4.02 (m, 2H, CH2), 3.93-3.89 (q, J=7.0 Hz, 2H, CH2), 3.59-3.56 (t, J=7.0 Hz, 1H, CH), 2.80-2.77 (m, 2H, CH2), 1.88 (br, 1H, NH), 1.41-1.39 (t, J=7.0 Hz, 3H, CH3), 1.15-1.12 (t, J=7.0 Hz, 3H, CH3); MS (ESI+) m/z 911.7[(M+DMSO)^+, 100], 833.7 [(M+H)+, 75]; Anal. Calcd. for C19H19I4NO4: C, 27.40; H, 2.30; N, 1.68. Found: C, 27.54; H, 1.94; N, 1.66. Solubility 10^−3M in water after preparing a solution at 10^−1M in DMSO.
When looking at the amorphous state, the solid was not stable and quickly returned to the crystal state. Thus, Tetrac was used as a salt with Na^+ as the counterion which reduced the use of DMSO to 10%. Then all analogs were solubilized with 10% DMSO in water for the TiPS protected analogs and in PBS for the others.

[1] = system: MDA-MB-231 cells gene expression; experiment: RNA microarray of MDA-MB-231 cells (Example 16); format: cell-based, human
Description: MDA-MB-231 cells were purchased from ATCC (Manassas, Va.). Cells were maintained until use in DMEM that contained 10% FBS. The incubator conditions were 5% CO2/95% 02 and 37° C. The action of unmodified Tetrac and nanoparticulate on MDA-MB-231 cells was determined in a perfusion bellows cell culture system we have recently described for quantitating pharmaceutical agent pharmacodynamics in vitro. (See Lin et al., J Steroid Biochem Mol Biol 113: 182-188 (2009)). In brief, the cell culture system is a disposable bioreactor capable of high density cell culture for studies of anti-cancer drugs. Bellows-induced alternate flow of culture medium and air through porous matrices where cells are grown provides a relatively low shear, high aeration, foam-free culture environment. Medium level is raised and lowered to submerge and expose matrices to create a dynamic interface between air and media on the cell surface. Anchorage-dependent cells are grown on plastic flakes in the system. The flakes facilitate harvesting of whole cells for analysis. In the present studies, 5×10^7 cells were seeded in each perfusion flask and incubated at 37 C overnight. Flakes thereafter were sampled at regular intervals (FIG. 44), subjected to trypsinization and the harvested cells counted. When Tetrac or nanoparticulate Tetrac were initially added to the system, flasks contained 20-50×10^6 cells. Cell cultures were re-fed with 1% FBS-containing medium. Studies were carried out in duplicate flasks and replicated once. • Cell culture for harvesting of RNA. MDA-MB-231 cells were maintained in DMEM that was supplemented with 10% FBS in a 5% CO2/95% 02 air incubator at 37° C. For two days prior to exposure to Tetrac and nanoparticulate Tetrac, cells were maintained in 0.25% FBS that was stripped of estrogen and thyroid hormone. (See Lin et al., Biochemistry 42: 7571-7579 (2003)). • RNA microarray and analysis. Microarray analysis experiments were conducted as described previously. (See Glinsky et al., J Clin Invest 115: 1503-1521 (2005); Glinsky et al., J Clin Invest 113: 913-923 (2004); Glinsky et al., Clin Cancer Res 10: 2272-2283 (2004); and Glinsky et al., Mol Carcinog 37: 209-221 (2003)). […] Sample purity and integrity were verified with an Agilent BioAnalyzer (Santa Clara, Calif.). Expression analysis of 54,675 transcripts for each sample was by Affymetrix HG-U133A Plus 2.0 arrays. MAS5.0 software was used for data retrieval and analysis and concordant changes of gene expression in response to unmodified Tetrac and nanoparticulate Tetrac were defined by two-tailed t test at a threshold p value <0.01. Results • Effects of Tetrac and nanoparticulate Tetrac on MDA-MB-231 cell proliferation. […] Unmodified Tetrac at 10^−6M, introduced at day 0, inhibited cell proliferation by more than 30% by day 9. […] Actions shown here of nanoparticulate Tetrac on these pairs of genes are antithetic to tumor cell survival. […] A third pathway affected by the agents was that of the catenins. (See Takemaru et al., Nature 422: 905-909 (2003)). CBY1 is a potent inhibitor of β-catenin and the Wnt/β-catenin system, which are major survival pathways in cancer cells. CBY1 expression was induced by Tetrac and Tetrac NP.

[2] = system: MDA-MB-231 cells gene expression; experiment: RNA microarray of MDA-MB-231 cells (Example 17); format: cell-based, human; conditions: 24 h
Description: Expression of ˜54,000 transcripts was analyzed in control and drug-treated cultures, using Affymetrix Human Genome U133 plus 2.0 microarrays. Subsequent analysis was focused on genes affected by treatment at p<0.01. There was 93% concordance between Tetrac and Tetrac NP in terms of genes affected; notable disparities included downregulation of epidermal growth factor receptor (EGFR) by Tetrac NP and no affect of unmodified Tetrac on this gene.

[3] = system: doxorubicin-resistant MCF7/R tumors; experiment: Doxorubicin-resistant tumors in nude mice; format: in vivo
Description: Mice were injected with doxorubicin-resistant MCF7/R cells (10^6) and after 10 days, they were assigned into groups of seven mice each and challenged with doxorubicin (2 mg/kg) or Tetrac (30 mg/kg) either alone or in combination. Tumor volume was measured every 3 days for up to three weeks.

TTR = TTR (Homo sapiens, UniProt P02766); conditions: cited from earlier work

## O=C(O)Cc1cc(I)c(Oc2cc(I)c(O)c(I)c2)c(I)c1 [Tetrac, tetraiodothyroacetic acid]
Solubility
  solubility in water: difficult to solubilize in water
[1]; MDA-MB-231
  BCL2L14 expression: not a significant stimulatory action
  CASP2 expression: not a significant stimulatory action
  CBY1 expression: significantly increased
  MCL1 expression: did not significantly affect
  THBS1 expression: upregulation
  XIAP expression: also acted on XIAP
[1]; MDA-MB-231 (FIG. 50)
  EGFR expression: ineffective
[2]; 10^−7M (Tetrac equivalent), hormone-stripped serum
  Change: CDKN2C: ↑
[2]; 10^−7M
  Change: BCL2L14: ↑
  Change: CASP2: ↑
  Change: CBY1: ↑
  Change: CTNNA1: ↓
  Change: CTNNA2: ↓
  Change: CTSL1: ↓
  Change: CXCL10: ↑
  Change: Cyclins: ↓
  Change: EDN1: ↑
  Change: Interleukins: ↓
  Change: MCL1: ↓
  Change: NR1D1: ↓
  Change: THBS1: ↑
  Change: XIAP: ↓
  epidermal growth factor receptor (EGFR) expression: no affect
[3]; Tetrac 30 mg/kg
  growth of drug resistant tumors: effective in suppressing the growth of drug resistant tumors
  toxic effect: without any noticeable toxic effect
[3]; Tetrac with doxorubicin 2 mg/kg
  doxorubicin-sensitivity in vivo: not restored
TTR
  affinity of TTR for Tetrac relative to that for T4: 100 times
